Laboratory results reported in patent publication US20160326547A1, “TRANSGENIC PRODUCTION OF HEPARIN” (LFB USA, INC., priority 2013, published 2016).
Entries after “also recorded” stand apart in the source; their conditions may differ.

Assays:
lactating goats [1] = assay: Experiment 2: udder infusion of heparin, toxicity study in lactating goats; type: in vivo, goat
Procedure: A study was conducted to determine if the production of heparin in the mammary gland would also have a significant effect on the producing animal. The protein produced by the transgene can potentially affect the mammary gland directly. In addition, it is known that there is potential leakage of the protein into the systemic system. To assess the potential effects of systemic and infused heparin on the goat, the study outlined below was performed. Blood was drawn and milk collected from each milking animal at least once daily during two experiments to determine the effects of heparin administration relative to systemic and udder infusion routes. The levels of heparin, and clotting times as indicated by aPTT were calculated from blood serum. Milk volumes were measured and heparin levels in the milk were determined. In addition, the quality of the milk (color, consistency, evidence of clumping, blood, or mastitis) was noted. The general health of each animal was assessed daily, including a rectal temperature. Since heparin is an anticoagulant, animals were also inspected daily for any gross signs of bleeding, such as abnormal bruising or petechiae. Six normal, non-transgenic, lactating goats were fed approximately four pounds of specially formulated vegetarian goat feed, per day, and given a combination of timothy and alfalfa hay as well as free access to water and plain and mineralized salt blocks. As these were lactating animals, they were milked daily starting on the day they arrived. The milk volume was measured each day and a rectal temperature recorded Milk volumes and rectal temperatures prior to the first or second experiment can be seen below in Table 7. Animals were manually restrained so that the jugular vein could be identified. A 21-gauge ¾ inch butterfly needle (BD Vacutainer Blood Collection Set Ref 367251, Franklin Lakes, N.J. USA) was inserted into the vessel, and the blood was collected into 2-1.8 ml sodium citrate vacutainer tubes (BD Vacutainer, Buffered Na Citrate, Franklin Lakes, N.J. USA). After collection (or after blood collection and heparin administration—see below) the needle was removed, and pressure was applied at the collection site to stop any bleeding. The animal received positive reinforcement (grain reward) after each procedure. All goats were milked using a portable milking machine, once every day starting the day the goats arrived. Animals were placed on a milking stand for this procedure. The general protocol for milking was as follows. Personnel doing the milking washed their hands thoroughly and donned latex examination gloves. The udder was cleaned using paper towels and water. The udder was then dried using clean paper towels. The teat was cleaned again using alcohol wipes, and pre-dip (FS-106 Sanitizing Teat Dip, IBA Inc., Millbury, Mass. USA) was applied and allowed to dry. A small sample was expressed from the teat by hand to assess milk quality, perform a streak test, and to be frozen for further analysis. The milking machine was then attached to the udder. After milking, the teats were cleaned with alcohol, and post milking disinfectant was applied (Ultra Shield Sanitizing Barrier Teat Dip, IBA Inc., Millbury, Mass. USA). The volume of milk was determined, and the small sample was frozen and stored in a −80° C. chest freezer for subsequent testing. The six milking goats were divided into 3 groups of 2 goats. All goats were milked daily with a milking machine, and had blood samples taken. After milking and blood collection, goats had their udders infused with heparin using a teat infusion cannula (Udder Infusion Cannula, IBA Inc., Millbury, Mass. USA). Each group received either a low (25,000 Units), medium (100,000 Units), or high (500,000 Units) dose of infused heparin, equivalent to the 3 different expression levels being explored on a per liter of milk basis. Volumes infused were less than 50 ml per udder. This protocol was performed for a total of seven days. […]

lactating goats [2] = assay: Experiment 1: systemic (intravenous) administration of heparin, toxicity study in lactating goats; type: in vivo, goat
Procedure: A study was conducted to determine if the production of heparin in the mammary gland would also have a significant effect on the producing animal. The protein produced by the transgene can potentially affect the mammary gland directly. In addition, it is known that there is potential leakage of the protein into the systemic system. To assess the potential effects of systemic and infused heparin on the goat, the study outlined below was performed. Blood was drawn and milk collected from each milking animal at least once daily during two experiments to determine the effects of heparin administration relative to systemic and udder infusion routes. The levels of heparin, and clotting times as indicated by aPTT were calculated from blood serum. Milk volumes were measured and heparin levels in the milk were determined. In addition, the quality of the milk (color, consistency, evidence of clumping, blood, or mastitis) was noted. The general health of each animal was assessed daily, including a rectal temperature. Since heparin is an anticoagulant, animals were also inspected daily for any gross signs of bleeding, such as abnormal bruising or petechiae. Six normal, non-transgenic, lactating goats were fed approximately four pounds of specially formulated vegetarian goat feed, per day, and given a combination of timothy and alfalfa hay as well as free access to water and plain and mineralized salt blocks. As these were lactating animals, they were milked daily starting on the day they arrived. The milk volume was measured each day and a rectal temperature recorded Milk volumes and rectal temperatures prior to the first or second experiment can be seen below in Table 7. Animals were manually restrained so that the jugular vein could be identified. A 21-gauge ¾ inch butterfly needle (BD Vacutainer Blood Collection Set Ref 367251, Franklin Lakes, N.J. USA) was inserted into the vessel, and the blood was collected into 2-1.8 ml sodium citrate vacutainer tubes (BD Vacutainer, Buffered Na Citrate, Franklin Lakes, N.J. USA). After collection (or after blood collection and heparin administration—see below) the needle was removed, and pressure was applied at the collection site to stop any bleeding. The animal received positive reinforcement (grain reward) after each procedure. The animals were restrained as above. The butterfly needle used for blood collection described above is designed so that blood can be collected via a vacutainer blood collection tube, or a syringe can be attached. Thus, after blood collection, the part of the needle that connects with the blood collection tube was removed, and a syringe with heparin was attached and the heparin was slowly injected. An additional 0.4 ml of sterile normal saline was flushed through the needle to ensure that all heparin was delivered. In this way a single needle placement was used for both blood collection and heparin injection, and any additional stress relative to a second venipuncture site was avoided. All goats were milked using a portable milking machine, once every day starting the day the goats arrived. Animals were placed on a milking stand for this procedure. The general protocol for milking was as follows. Personnel doing the milking washed their hands thoroughly and donned latex examination gloves. The udder was cleaned using paper towels and water. The udder was then dried using clean paper towels. […]

[3] = Medium dose udder infusion (100,000 units per liter), Animal 4, days 1-8, day 1
[4] = Medium dose udder infusion (100,000 units per liter), Animal 4, days 1-8, day 2
[5] = Medium dose udder infusion (100,000 units per liter), Animal 4, days 1-8, day 3
[6] = Medium dose udder infusion (100,000 units per liter), Animal 4, days 1-8, day 4
[7] = Medium dose udder infusion (100,000 units per liter), Animal 4, days 1-8, day 5
[8] = Medium dose udder infusion (100,000 units per liter), Animal 4, days 1-8, day 6
[9] = Medium dose udder infusion (100,000 units per liter), Animal 4, days 1-8, day 7
[10] = goat infused with the highest levels
[11] = udder infusion, low or medium dose for a week

Q: Which results are given for heparin?
A: Milk volume (lactating goats [1]; Low dose udder infusion (25,000 units/liter), Animal 1, days 1-8 (daily infusion days 1-7), day 1): 2.25 L; Milk volume (lactating goats [1]; Low dose udder infusion (25,000 units/liter), Animal 1, days 1-8 (daily infusion days 1-7), day 3): 2.2 L; Milk volume (lactating goats [1]; Low dose udder infusion (25,000 units/liter), Animal 1, days 1-8 (daily infusion days 1-7), day 4): 2.0 L; Milk volume (lactating goats [1]; Low dose udder infusion (25,000 units/liter), Animal 1, days 1-8 (daily infusion days 1-7), day 5): 1.9 L; Milk volume (lactating goats [1]; Low dose udder infusion (25,000 units/liter), Animal 1, days 1-8 (daily infusion days 1-7), day 6): 1.8 L; Milk volume (lactating goats [1]; Low dose udder infusion (25,000 units/liter), Animal 1, days 1-8 (daily infusion days 1-7), day 7): 1.7 L; aPTT time (lactating goats [1]; Low dose udder infusion (25,000 units/liter), Animal 1, days 1-8, day 1): 23.2 s; aPTT time (lactating goats [1]; Low dose udder infusion (25,000 units/liter), Animal 1, days 1-8, day 2): 36 s; aPTT time (lactating goats [1]; Low dose udder infusion (25,000 units/liter), Animal 1, days 1-8, day 3): 37 s; aPTT time (lactating goats [1]; Low dose udder infusion (25,000 units/liter), Animal 1, days 1-8, day 4): 34.9 s; aPTT time (lactating goats [1]; Low dose udder infusion (25,000 units/liter), Animal 1, days 1-8, day 5): 34.5 s; aPTT time (lactating goats [1]; Low dose udder infusion (25,000 units/liter), Animal 1, days 1-8, day 6): 34.6 s; aPTT time (lactating goats [1]; Low dose udder infusion (25,000 units/liter), Animal 1, days 1-8, day 7): 33.5 s; aPTT time (lactating goats [1]; Low dose udder infusion (25,000 units/liter), Animal 1, days 1-8, day 8): 33.1 s; Milk volume (lactating goats [1]; Medium dose udder infusion (100,000 units per liter), Animal 2, days 1-8, day 1): 2 L; Milk volume (lactating goats [1]; Medium dose udder infusion (100,000 units per liter), Animal 2, days 1-8, day 2): 1.35 L; Milk volume (lactating goats [1]; Medium dose udder infusion (100,000 units per liter), Animal 2, days 1-8, day 3): 1.5 L; Milk volume (lactating goats [1]; Medium dose udder infusion (100,000 units per liter), Animal 2, days 1-8, day 4): 1.6 L; Milk volume (lactating goats [1]; Medium dose udder infusion (100,000 units per liter), Animal 2, days 1-8, day 5): 1.3 L; Milk volume (lactating goats [1]; Medium dose udder infusion (100,000 units per liter), Animal 2, days 1-8, day 6): 1.2 L; Milk volume (lactating goats [1]; Medium dose udder infusion (100,000 units per liter), Animal 2, days 1-8, day 7): 1.25 L; Milk volume (lactating goats [1]; Medium dose udder infusion (100,000 units per liter), Animal 2, days 1-8, day 8): 1.75 L; Milk volume (lactating goats [1]; [3]): 3.25 L; aPTT time (lactating goats [1]; [3]): 24.7 s; Milk volume (lactating goats [1]; [4]): 2.75 L; aPTT time (lactating goats [1]; [4]): 32.7 s; Milk volume (lactating goats [1]; [5]): 2.5 L; aPTT time (lactating goats [1]; [5]): 44 s; Milk volume (lactating goats [1]; [6]): 1.9 L; aPTT time (lactating goats [1]; [6]): 30.2 s; Milk volume (lactating goats [1]; [7]): 2.2 L; aPTT time (lactating goats [1]; [7]): 42.4 s; Milk volume (lactating goats [1]; [8]): 2.0 L; aPTT time (lactating goats [1]; [8]): 42.1 s; Milk volume (lactating goats [1]; [9]): 2.25 L; aPTT time (lactating goats [1]; [9]): 22.9 s; aPTT time (lactating goats [1]; Medium dose udder infusion (100,000 units per liter), Animal 4, days 1-8, day 8): 29.8 s; Milk volume during heparin infusion into the udder (lactating goats [1]; all infusion levels): initial drop in milk volume; Milk production (lactating goats [1]; [10]): dramatic decrease in milk production; Udder response (lactating goats [1]; [10]): inflammatory response; aPTT (lactating goats [1]; high levels of infused heparin): dramatically increased; Goat health and milk production (lactating goats [1]; low and medium doses of systemic and infused heparin (overall conclusion)): minimal effects; aPTT (lactating goats [1]; single daily udder infusions of low or medium dose for a week): ≤ 55 s; Systemic effects (lactating goats [1]; udder infusion of the highest levels): high body temperature and increased respiratory sounds; Body temperature (lactating goats [1]; [11]): little effect; Signs of bleeding (lactating goats [1]; [11]): did not produce any signs of bleeding; aPTT during washout period after heparin udder infusion (lactating goats [1]; washout after udder infusion): 20 to 40 s; aPTT (lactating goats [2]; High dose (31,000 Units IV TID), noon and 4 PM samples, above instrument maximum): > 124 s; aPTT overnight between the two high doses (lactating goats [2]; High dose IV, second High AM sample prior to AM dose): low 40's; also recorded: dropped to more normal levels overnight; Lung sounds (lactating goats [2]; High dose IV, second day, noon and 4 PM examinations): increase in lung sounds in one animal; Petechiae or abnormal bleeding (lactating goats [2]; IV heparin over 6 days, any dose): no obvious gross signs of bleeding; also recorded: no evidence of petechiae or abnormal bleeding; Milk volumes and body temperatures (lactating goats [2]; any IV dose): little, if any, effect; also recorded: not affected
